Assay [1] has as its target T1, S. agalactiae γ-GCS-GS (Streptococcus agalactiae serotype V, UniProt Q8DXM9).
T1 sequence (Q8DXM9 1-750): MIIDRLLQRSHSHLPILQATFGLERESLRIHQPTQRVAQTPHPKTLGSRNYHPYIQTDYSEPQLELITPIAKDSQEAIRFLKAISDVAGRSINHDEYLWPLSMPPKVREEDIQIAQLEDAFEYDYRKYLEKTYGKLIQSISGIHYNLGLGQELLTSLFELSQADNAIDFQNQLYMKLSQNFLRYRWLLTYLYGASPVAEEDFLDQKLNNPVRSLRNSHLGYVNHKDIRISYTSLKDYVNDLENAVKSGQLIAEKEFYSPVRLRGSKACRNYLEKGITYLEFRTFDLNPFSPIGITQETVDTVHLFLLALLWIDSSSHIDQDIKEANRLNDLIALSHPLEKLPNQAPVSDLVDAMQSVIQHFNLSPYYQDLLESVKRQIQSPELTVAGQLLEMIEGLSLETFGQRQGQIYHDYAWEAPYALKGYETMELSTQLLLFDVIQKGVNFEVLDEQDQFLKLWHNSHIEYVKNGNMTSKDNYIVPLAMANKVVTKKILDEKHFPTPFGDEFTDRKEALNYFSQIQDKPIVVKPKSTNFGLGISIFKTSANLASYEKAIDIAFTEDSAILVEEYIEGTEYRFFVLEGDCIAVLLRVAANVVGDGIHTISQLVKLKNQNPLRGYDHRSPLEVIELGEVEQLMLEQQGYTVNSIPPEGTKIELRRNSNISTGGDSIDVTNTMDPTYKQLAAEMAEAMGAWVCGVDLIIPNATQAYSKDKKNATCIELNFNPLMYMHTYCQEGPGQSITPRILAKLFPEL
In words: GS activity assay based on ADP formation, S. agalactiae γ-GCS-GS. The conditions noted are these: GS activity. On the procedure: Transformed cells were grown, induced, and harvested by centrifugation, and were then broken using a French pressure cell. […] The column was equilibrated with 50 mM Tris HCl buffer, pH 7.4, containing 5 mM L-glutamate, 5 mM MgCl2, and 5 mM β-mercaptoethanol, and the high-speed supernatant was loaded. After washing the column with equilibration buffer to remove proteins lacking a His-tag, the expressed His8-tagged protein was eluted using the same buffer supplemented with 200 mM imidazole. Amount of γ-GCS activity was determined as described in Example 2. […] It was observed that the purified enzyme catalyzed both the γ-GCS and the GS reactions. Since the GS-specific activity was higher than the specific activity for any known GS enzyme, it was apparent that the expressed 85 kDa S. agalactiae protein (rather than a trace impurity), accounted for the observed GS activity. Using the pREP4 auxiliary plasmid instead of the pRARE plasmid gave somewhat lower yields (325 mg total protein vs. 442 mg protein using pRARE) but the specific activities of the γ-GCS activity (870 units/mg) and GS activities (1143 units/mg) were similar.
Results for E. coli GS are from H. Gushima et al. J. Appl. Biochem. 5, 210-218 (1983). Results for rat GS are from J. L. Luo et al. Biochem. Biophys. Res. Commun. 275, 577-581 (2000). Results for human GS are from R. Njalsson et al. Biochem. Biophys. Res. Commun. 289, 80-84 (2001) and R. Njalsson et al. Biochem. J. 349, 275-279 (2000).

The target in the next assay is T2, Rat GS (Rattus norvegicus, UniProt P46413).
T2 sequence (P46413 1-474): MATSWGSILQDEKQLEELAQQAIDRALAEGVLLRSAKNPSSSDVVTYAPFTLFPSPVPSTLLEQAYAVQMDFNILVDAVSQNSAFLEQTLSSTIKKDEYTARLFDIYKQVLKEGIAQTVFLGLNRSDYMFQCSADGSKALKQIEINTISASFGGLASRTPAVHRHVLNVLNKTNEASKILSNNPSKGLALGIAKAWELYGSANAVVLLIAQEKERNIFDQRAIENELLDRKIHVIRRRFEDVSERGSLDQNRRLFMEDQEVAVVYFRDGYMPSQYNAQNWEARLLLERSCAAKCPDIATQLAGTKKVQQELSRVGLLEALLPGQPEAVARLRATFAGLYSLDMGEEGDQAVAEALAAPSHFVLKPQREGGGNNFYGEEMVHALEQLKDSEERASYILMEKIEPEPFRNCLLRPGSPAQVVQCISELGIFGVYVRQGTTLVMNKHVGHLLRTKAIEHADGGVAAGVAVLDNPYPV
The conditions noted are these: cited from earlier work.

In assay [2] the target is T1, S. agalactiae γ-GCS-GS. The experiment in a line: γ-GCS activity assay based on ADP formation, S. agalactiae γ-GCS-GS. Also on record: corresponded to full-length S. agalactiae γ-GCS-GS with an N-terminal His8-tag; made in house; host or cells: E. coli SG13009 with pQE30-gshAB plus pREP4 or pRARE. The assay is classed as biochemical. The conditions noted are these: γ-GCS activity. On the procedure:
In Table 1, a unit was defined as the amount of enzyme activity required to catalyze the formation of 1 μmol of product per hour. Specific activity was shown as units per mg protein. Activity was determined at 37° C. based on ADP formation in reaction mixtures containing L-glutamate and L-cysteine and using pyruvate kinase and lactate dehydrogenase to couple ADP formation to NADH oxidation, which was monitored at 340 nm.
Exp. Purif. 13, 268-276 (1998).
At set time points ranging from one to 30 minutes, 5 μl aliquots were removed and assayed for residual enzyme activity using the standard γ-GCS assay based on ADP formation.

The next assay concerns the target E. coli γ-GCS (Escherichia coli, UniProt P0A6W9). The conditions noted are these: cited from earlier work.

Among the data in patent US20080194701A1, “Bifunctional Enzyme with Y-Glutamylcysteine Synthetase and Glutathione Synthetase Activity and Uses Thereof” (priority 2004, published 2008) are Vmax and Km values, retold here.

Broadly, the Km is the concentration of substrate that gives half-maximal velocity.

E. coli γ-GCS, sequence (P0A6W9 whole entry): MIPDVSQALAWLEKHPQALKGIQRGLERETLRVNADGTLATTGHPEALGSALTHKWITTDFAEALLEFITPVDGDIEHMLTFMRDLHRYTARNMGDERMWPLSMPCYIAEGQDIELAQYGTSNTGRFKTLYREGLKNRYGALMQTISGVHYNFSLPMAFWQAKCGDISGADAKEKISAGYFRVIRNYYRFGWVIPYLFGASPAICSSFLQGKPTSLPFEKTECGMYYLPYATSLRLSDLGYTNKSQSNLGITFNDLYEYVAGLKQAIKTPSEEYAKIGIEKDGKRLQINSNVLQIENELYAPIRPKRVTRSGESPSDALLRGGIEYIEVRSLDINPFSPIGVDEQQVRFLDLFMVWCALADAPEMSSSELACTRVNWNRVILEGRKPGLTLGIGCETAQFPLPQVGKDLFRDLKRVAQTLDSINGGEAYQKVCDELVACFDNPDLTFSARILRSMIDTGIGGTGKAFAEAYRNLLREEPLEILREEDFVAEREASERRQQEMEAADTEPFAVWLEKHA

For the compound `Nc1ncnc2c1ncn2[C@@H]1O[C@H](COP(=O)(O)OP(=O)(O)OP(=O)(O)O)[C@@H](O)[C@H]1O` [ATP], the Vmax on S. agalactiae γ-GCS-GS [1] (unit = 1 μmol product per hour) is 1662 ± 77 units/mg; at Rat GS it was 678 units/mg; on S. agalactiae γ-GCS-GS [2] (unit = 1 μmol product per hour), 1332 ± 120 units/mg; on E. coli γ-GCS (unit = 1 μmol product per hour), around 3000 units/mg. In addition, the Km on S. agalactiae γ-GCS-GS [1] (substrate Km) is 420 ± 49 µM; on Rat GS (substrate Km) it was 37 µM; at S. agalactiae γ-GCS-GS [2] (substrate Km) it was 66 ± 9 µM; on E. coli γ-GCS (substrate Km), 62 µM.
